Measured values reported in patent US10508109B2 (priority 2015, dated 2019).
Structures can show the parent of a compound that is named as a salt. Where two headings read alike, the source gives them in different places.

Columns and labels:
SUV39H2 = SUV39H2 (Homo sapiens (Human), UniProt Q9H5I1); conditions: read-out: IC50 (μM) Suv 39H2 assay
CCD-18Co = experiment: Cell-based assay, anti-proliferative activity (Cell Counting Kit-8, 72 hours); conditions: Homo sapiens, read-out: IC50 (μM) CCD-18Co
Procedure: (§1) Active candidate inhibitors against SUV39H2 were evaluated for their target-specific cytotoxicity using A549, HCT-116, HFL1, CCD-18Co and PC14. 100 micro-L of cell suspension was seeded onto 96-well microtiter plate (ViewPlate-96FTC, PerkinElmer). The initial cell concentration of A549, HCT-116, HFL1, CCD-18Co and PC14 were 3,000 cells/well, 2,000 cells/well and 2,500 cells/well, respectively. Cellular growth was determined using Cell Counting Kit-8 (DOJINDO) at 72 hours after the exposure of the candidate inhibitors. IC50 was used as an indicator of the anti-proliferative activity of the inhibitors, and calculated by serial dilution method (0, 1.5625, 3.125, 6.25, 12.5, 25, 50, and 100 micro-M). Accurate IC50 values were calculated as described previously.

HFL1 = experiment: as above; conditions: Homo sapiens, read-out: IC50 (μM) HFL1
Procedure: as §1

HCT-116 = experiment: as above; conditions: Homo sapiens, read-out: IC50 (μM) HCT-116
Procedure: as §1

A549 = experiment: as above; conditions: Homo sapiens
Procedure: 100 micro-L of cell suspension was seeded onto 96-well microtiter plate (ViewPlate-96FTC, PerkinElmer). […] Cellular growth was determined using Cell Counting Kit-8 (DOJINDO) at 72 hours after the exposure of the candidate inhibitors. […] Accurate IC50 values were calculated as described previously.

[1] = CCD-18Co cells, Cell Counting Kit-8, 72 hours
[2] = HFL1 cells, Cell Counting Kit-8, 72 hours
[3] = HCT-116 cells, Cell Counting Kit-8, 72 hours
[4] = A549 cells, Cell Counting Kit-8, 72 hours, read-out: IC50 (μM) A549
[5] = A549 cells, 72 hours exposure, Cell Counting Kit-8, read-out: A549 IC50

Chain of SUV39H2 (Q9H5I1 whole entry): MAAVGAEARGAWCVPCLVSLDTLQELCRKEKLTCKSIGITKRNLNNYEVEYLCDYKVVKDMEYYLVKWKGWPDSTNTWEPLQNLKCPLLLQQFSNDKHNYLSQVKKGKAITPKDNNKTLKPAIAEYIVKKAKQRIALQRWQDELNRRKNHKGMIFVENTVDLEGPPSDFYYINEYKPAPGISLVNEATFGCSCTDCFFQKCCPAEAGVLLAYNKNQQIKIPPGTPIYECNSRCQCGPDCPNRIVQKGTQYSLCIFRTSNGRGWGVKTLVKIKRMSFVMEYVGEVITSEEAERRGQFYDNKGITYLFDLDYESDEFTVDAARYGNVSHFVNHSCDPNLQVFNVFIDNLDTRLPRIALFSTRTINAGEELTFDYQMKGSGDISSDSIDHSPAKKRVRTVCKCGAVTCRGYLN

Compound	IC50 (SUV39H2; enzyme assay)	IC50 (CCD-18Co; [1])	IC50 (HFL1; [2])	IC50 (HCT-116; [3])	IC50 (A549; [4])	other results
COCCN1CCN(c2ccn3cc(-c4cc(Cl)c(OC)cc4OC)nc3c2)CC1 [Example 105, 2-(5-chloro-2,4-dimethoxyphenyl)-7-(4-(2-methoxyethyl)piperazin-1-yl)imidazo[1,2-a]pyridine]	0.0111 µM	8.1 µM	8.3 µM	7 µM	7.2 µM	
COc1cc(OC)c(-c2cn3ccc(N4CCC(CCN)CC4)nc3n2)cc1Cl [Example 67]	0.0216 µM	13 µM	9.6 µM	13 µM	12 µM	
COc1cc(OC)c(-c2cn3ccc(N)nc3n2)cc1Cl [Example 8, 2-(5-chloro-2,4-dimethoxyphenyl)imidazo[1,2-a]pyrimidin-7-amine]	0.0182 µM	19 µM	21 µM	16 µM	17 µM	
COc1cc(OC)c(-c2cn3ccc(N4CCC(NC(=O)OC(C)(C)C)C4)nc3n2)cc1Br (stereo not drawn) [Example 13]	0.0219 µM	4.4 µM	3.7 µM	6.6 µM	5.7 µM	
COc1cc(OC)c(-c2cn3ccc(NCCNC(=O)OC(C)(C)C)nc3n2)cc1Br [Example 18, tert-butyl (2-((2-(5-bromo-2,4-dimethoxyphenyl)imidazo[1,2-a]pyrimidin-7-yl)amino)ethyl)carbamate]	0.0884 µM	12 µM	11 µM	13 µM	14 µM	
COc1cc(OC)c(-c2cn3ccc(N4CCOCC4)cc3n2)cc1C [Example 86, 4-(2-(2,4-dimethoxy-5-methylphenyl)imidazo[1,2-a]pyridin-7-yl)morpholine]	0.0207 µM	13 µM	8 µM	14 µM	14 µM	
COCCCN1CC=C(c2ccn3cc(-c4cc(Cl)c(OC)cc4OC)nc3c2)CC1 [Example 116, 2-(5-Chloro-2,4-dimethoxyphenyl)-7-(1-(3-methoxypropyl)-1,2,3,6-tetrahydropyridin-4-yl)imidazo[1,2-a]pyridine]	0.0738 µM	11 µM	6.6 µM	7 µM	6.1 µM	
COc1cc(OC)c(-c2cn3ccc(N4CCC(NC(=O)[C@H](CCC(N)=O)NC(=O)OC(C)(C)C)C4)cc3n2)cc1Cl (stereo partly drawn) [Example 39, tert-butyl ((2S)-5-amino-1-((1-(2-(5-chloro-2,4-dimethoxyphenyl)imidazo[1,2-a]pyridin-7-yl)pyrrolidin-3-yl)amino)-1,5-dioxopentan-2-yl)carbamate]	0.00489 µM					
COc1cc(OC)c(-c2cn3ccc(N4CCC(NC(=O)CCNC(=O)OC(C)(C)C)C4)nc3n2)cc1Br (stereo not drawn) [Example 65]	0.014 µM	26 µM	27 µM	17 µM	28 µM	
COc1cc(OC(C)C)c(-c2cn3ccc(N4CCCC4)cc3n2)cc1Br [Example 53, hydrobromide]	0.0181 µM	2.1 µM	1.9 µM	2.4 µM	2.5 µM	
3-amino-N-(3-(2-(5-bromo-2,4-dimethoxyphenyl)imidazo[1,2-a]pyrimidin-7-yl)cyclopentyl)propanamide hydrochloride [Example 68]	0.0162 µM					
COc1cc(OC)c(-c2cn3ccc(N(C)CCNC(=O)OC(C)(C)C)cc3n2)cc1Cl [Example 48, tert-butyl (2-((2-(5-chloro-2,4-dimethoxyphenyl)imidazo[1,2-a]pyridine-7-yl)(methyl)aimno)ethyl)carbamate]	0.0124 µM	6.4 µM	3.8 µM	7.3 µM	8.2 µM	
COc1cc(OC)c(-c2cn3ccc(N4CCN(CCC(=O)O)CC4)cc3n2)cc1Cl [Example 133, 3-(4-(2-(5-chloro-2,4-dimethoxyphenyl)imidazo[1,2-a]pyridin-7-yl)piperazin-1-yl)propanoic acid]	0.0137 µM					
COc1cc(OC)c(-c2cn3cnc(N)cc3n2)cc1Cl [Example 51, 2-(5-chloro-2,4-dimethoxyphenyl)imidazo[1,2-c]pyrimidin-7-amine]	0.0531 µM	6.8 µM	8.4 µM	8.9 µM	9.8 µM	
COc1cc(OC)c(-c2cn3ccc(C4=CCOCC4)cc3n2)cc1Cl [Example 118, 2-(5-chloro-2,4-dimethoxyphenyl)-7-(3,6-dihydro-2H-pyran-4-yl)-imidazo[1,2-a]pyridine]	0.0661 µM	11 µM	6.9 µM	9.1 µM	6.9 µM	
COc1cc(OC2CCCC2)c(-c2cn3ccc(N4CCOCC4)cc3n2)cc1Cl [Example 90, 4-(2-(5-chloro-2-(cyclopentyloxy)-4-methoxyphenyl)imidazo[1,2-a]-pyridin-7-yl)morpholine]	0.0584 µM	6 µM	3.9 µM	4.7 µM	7.1 µM	
COc1cc(OC)c(-c2cn3ccc(C)cc3n2)cc1Cl [Example 76, 2-(5-chloro-2,4-dimethoxyphenyl)-7-methylimidazo[1,2-a]pyridine hydrobromide]	0.0665 µM					
COc1cc(OC)c(-c2cn3ccc(O)cc3n2)cc1Cl [Example 20, 2-(5-chloro-2,4-dimethoxyphenyl)imidazo[1,2-a]pyridin-7-ol]	0.09 µM					
COC(=O)c1ccc(CN[C@H]2CC[C@@H](Nc3ccn4cc(-c5cc(Cl)c(OC)cc5OC)nc4c3)CC2)cc1 [Example 409, methyl 4-(((cis-4-((2-(5-chloro-2,4-dimethoxyphenyl)imidazo[1,2-a]pyridin-7-yl)amino)cyclohexyl)amino)methyl)benzoate bis(2,2,2-trifluoroacetate)]						IC50 (A549; [5]): 0.86 µM
COc1cc(OC)c(-c2cn3ccc(N4CCC(NC(N)=O)C4)cc3n2)cc1Cl (stereo not drawn) [Example 38, 1-(1-(2-(5-chloro-2,4-dimethoxyphenyl)imidazo[1,2-a]pyridin-7-yl)pyrrolidin-3-yl)urea]	0.00411 µM					
COc1cc(OC)c(-c2cn3ccc(N4CCCC4)nc3n2)cc1C#N [Example 69, 2,4-dimethoxy-5-(7-(pyrrolidin-1-yl)imidazo[1,2-a]pyrimidin-2-yl)-benzonitrile hydrochloride]						IC50 (SUV39H2): 0.0141 µM
COc1cc(OC)c(-c2cn3ccc(NCCN4CCCCC4)cc3n2)cc1Cl [Example 64, 2-(5-chloro-2,4-dimethoxyphenyl)-N-(2-(piperidin-1-yl)ethyl)imidazo[1,2-a]pyridine-7-amine]						IC50 (CCD-18Co; CCD-18Co, 72 h): 4.5 µM; IC50 (HFL1; HFL1, 72 h): 2.6 µM; IC50 (HCT-116; HCT-116, 72 h): 3.4 µM; IC50 (A549; A549, 72 h, read-out: IC50 (μM) A549): 4.2 µM
COc1cc(OC)c(-c2cn3ccc(N4CCN(c5cnc(N6CCNCC6)nc5)CC4)cc3n2)cc1Cl [Example 344, 2-(5-chloro-2,4-dimethoxyphenyl)-7-(4-(2-(piperazin-1-yl)pyrimidin-5-yl)piperazin-1-yl)imidazo[1,2-a]pyridine bis(2,2,2-trifluoroacetate)]						IC50 (A549; [5]): 0.35 µM
COc1cc(OC)c(-c2cn3ccc(N4CCC(NC(=O)CCN)C4)cc3n2)cc1Cl (stereo not drawn) [Example 50, 3-amino-N-(1-(2-(5-chloro-2,4-dimethoxyphenyl)imidazo[1,2-a]pyridin-7-yl)pyrrolidin-3-yl)propanamide]	0.00575 µM					
COCC(=O)N1CCN(c2ccn3cc(-c4cc(Cl)c(OC)cc4OC)nc3c2)C(C)C1 (stereo not drawn) [Example 313, 1-(4-(2-(5-chloro-2,4-dimethoxyphenyl)imidazo[1,2-a]pyridin-7-yl)-3-methylpiperazin-1-yl)-2-methoxyethanone]						IC50 (A549; [5]): 10 µM
COc1cc(OC)c(-c2cn3ccc(C4=CCN(CCC(=O)O)CC4)cc3n2)cc1Cl [Example 141, 3-(4-(2-(5-chloro-2,4-dimethoxyphenyl)imidazo[1,2-a]pyridin-7-yl)-5,6-dihydropyridin-1(2H)-yl)propanoic acid]	0.0777 µM					
COc1cc(OC)c(-c2cn3ccc(N)nc3n2)cc1C#N [Example 46, 5-(7-aminoimidazo[1,2-a]pyrimidin-2-yl)-2,4-dimethoxybenzonitrile]	0.0453 µM					
COc1cc(OC)c(-c2cn3ccc(N4CC[C@H](NCC5CCN(S(=O)(=O)C6CC6)CC5)C4)cc3n2)cc1Cl [Example 421, (S)-1-(2-(5-chloro-2,4-dimethoxyphenyl)imidazo[1,2-a]pyridin-7-yl)-N-((1-(cyclopropylsulfonyl)piperidin-4-yl)methyl)pyrrolidin-3-amine]						IC50 (A549; [5]): 0.94 µM
COc1cc(OC)c(-c2cn3ccc(N4CCC(NC(=O)NCCN)C4)cc3n2)cc1Cl (stereo not drawn) [Example 62, 1-(2-aminoethyl)-3-(1-(2-(5-chloro-2,4-dimethoxyphenyl)imidazo[1,2-a]-pyridin-7-yl)pyrrolidin-3-yl)urea]	0.00514 µM					
